From US12668600B2 (Kumquat Biosciences Inc., priority 2023, dated 2026)

Columns and labels:
Assay type in all cases: biochemical
KRAS G12D = molecular target: T1, KRAS G12D (Homo sapiens, UniProt P01116, G12D); test: HTRF KRAS-SOS1 interaction assay, KRAS G12D; conditions: binned ≤2 μM / >2 μM, read-out: Inhibition of KRAS G12D (IC50)
T1 construct: made in house; host or cells: E. coli, e.g. BL21 (DE3)
Procedure, shortened: (§1)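 Inhibition of the KRAS–SOS1 interaction was measured by HTRF (ex 337, em 620/665 nm) after ≥~10 min incubation. Donor: anti-GST-Eu on GST-KRAS; acceptor: anti-6His-XL665 on His-hSOS1, in HEPES pH 7.4 buffer with DTT, BSA and Igepal. Compounds in duplicate at 0.01–10 μM; IC50 from emission ratio.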

KRAS WT = molecular target: T2, KRAS WT (Homo sapiens, UniProt P01116); test: HTRF KRAS-SOS1 interaction assay, wildtype KRAS; conditions: binned ≤2 μM / >2 μM, read-out: Inhibition of KRAS WT (IC50)
T2 construct: made in house; host or cells: E. coli, e.g. BL21 (DE3)
Procedure, shortened: as §1

KRAS G12V = molecular target: T3, KRAS G12V (Homo sapiens, UniProt P01116, G12V); test: HTRF KRAS-SOS1 interaction assay, KRAS G12V; conditions: binned ≤2 μM / >2 μM, read-out: Inhibition of KRAS G12V (IC50)
T3 construct: made in house; host or cells: E. coli, e.g. BL21 (DE3)
Procedure, shortened: as §1

KRAS G12S = molecular target: T4, KRAS G12S (Homo sapiens, UniProt P01116, G12S); test: HTRF KRAS-SOS1 interaction assay, KRAS G12S; conditions: binned ≤2 μM / >2 μM, read-out: Inhibition of KRAS G12S (IC50)
T4 construct: made in house; host or cells: E. coli, e.g. BL21 (DE3)
Procedure, shortened: as §1

T1 sequence (P01116 1-188 isoform P01116-2 G12D): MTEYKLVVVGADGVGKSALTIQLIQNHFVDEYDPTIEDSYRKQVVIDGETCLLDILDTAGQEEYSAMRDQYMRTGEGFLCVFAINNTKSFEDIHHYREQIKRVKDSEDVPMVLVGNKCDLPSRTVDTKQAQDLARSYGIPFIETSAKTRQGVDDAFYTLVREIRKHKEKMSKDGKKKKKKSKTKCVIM
T3 sequence (P01116 1-188 isoform P01116-2 G12V): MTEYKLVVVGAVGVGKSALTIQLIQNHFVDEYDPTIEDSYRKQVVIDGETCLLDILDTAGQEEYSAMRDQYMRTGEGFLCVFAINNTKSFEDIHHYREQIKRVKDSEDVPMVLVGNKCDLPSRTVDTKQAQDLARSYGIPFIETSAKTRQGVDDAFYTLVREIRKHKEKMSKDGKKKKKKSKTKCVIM
T4 sequence (P01116 1-188 isoform P01116-2 G12S): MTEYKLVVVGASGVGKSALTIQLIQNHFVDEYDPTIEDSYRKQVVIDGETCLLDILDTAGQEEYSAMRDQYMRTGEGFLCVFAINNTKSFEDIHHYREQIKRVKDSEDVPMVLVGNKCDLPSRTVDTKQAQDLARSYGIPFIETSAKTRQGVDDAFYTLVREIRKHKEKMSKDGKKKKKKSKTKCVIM
T2 sequence (P01116 1-188 isoform P01116-2): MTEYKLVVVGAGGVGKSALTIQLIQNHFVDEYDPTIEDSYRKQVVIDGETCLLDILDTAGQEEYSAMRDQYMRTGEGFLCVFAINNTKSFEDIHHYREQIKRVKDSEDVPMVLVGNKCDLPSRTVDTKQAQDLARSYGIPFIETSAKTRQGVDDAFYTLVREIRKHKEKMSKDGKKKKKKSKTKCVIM

Compound	IC50 (KRAS G12D) [µM]	IC50 (KRAS WT) [µM]	IC50 (KRAS G12V) [µM]	IC50 (KRAS G12S) [µM]
C=CC(F)(F)[C@@H](c1cccnc1N)N1CCOc2c(Cl)c(-c3ccc(F)c4sc(N)c(C#N)c34)c(F)c3nc(OC[C@@]45CCCN4C[C@H](F)C5)nc1c23 [Compound 834, 2-amino-4-(4-((R)-1-(2-aminopyridin-3-yl)-2,2-difluorobut-3-en-1-yl)-8-chloro-10-fluoro-2-(((2R,7aS)-2-fluorotetrahydro-1H-pyrrolizin-7a(5H)-yl)methoxy)-5,6-dihydro-4H-[1,4]oxazepino[5,6,7-de]quinazolin-9-yl)-7-fluorobenzo[b]thiophene-3-carbonitrile]	> 2	≤ 2	≤ 2	≤ 2
C=C1CN2CC(=C)CC2(COc2nc3c4c(c(C(F)(F)F)c(-c5ccc(F)c6sc(N)c(C#N)c56)c(F)c4n2)OCCN3[C@H](C)c2cncnc2N)C1 (single isomer, unassigned) [Compound 707]	≤ 2	≤ 2	≤ 2	≤ 2
N#Cc1c(N)sc2c(F)ccc(-c3c(Cl)c4c5c(nc(OC[C@@]67CCCN6C[C@H](F)C7)nc5c3F)N(C(CCCO)c3cccnc3N)CCO4)c12 (mixture of isomers) [Compound 822, 2-amino-4-(4-(1-(2-aminopyridin-3-yl)-4-hydroxybutyl)-8-chloro-10-fluoro-2-(((2R,7aS)-2-fluorotetrahydro-1H-pyrrolizin-7a(5H)-yl)methoxy)-5,6-dihydro-4H-[1,4]oxazepino[5,6,7-de]quinazolin-9-yl)-7-fluorobenzo[b]thiophene-3-carbonitrile]	≤ 2	≤ 2	≤ 2	≤ 2
CCON=C(C)CC[C@H](c1cccnc1N)N1CCOc2c(C(F)(F)F)c(-c3ccc(F)c4sc(N)c(C#N)c34)c(F)c3nc(OC[C@@]45CCCN4C[C@H](F)C5)nc1c23 (mixture of isomers) [Compound 789, 2-amino-4-(4-((R)-1-(2-aminopyridin-3-yl)-4-(ethoxyimino)pentyl)-10-fluoro-2-(((2R,7aS)-2-fluorotetrahydro-1H-pyrrolizin-7a(5H)-yl)methoxy)-8-(trifluoromethyl)-5,6-dihydro-4H-[1,4]oxazepino[5,6,7-de]quinazolin-9-yl)-7-fluorobenzo[b]thiophene-3-carbonitrile]	≤ 2	≤ 2	≤ 2	≤ 2
N#Cc1c(N)sc2c(F)ccc(-c3c(C(F)(F)F)c4c5c(nc(OC[C@@]67CCCN6C[C@H](F)C7)nc5c3F)N([C@H](CCCN3CCCCC3)c3cccnc3N)CCO4)c12 (single isomer, unassigned) [Compound 704]	≤ 2	≤ 2	≤ 2	≤ 2
N#Cc1c(N)sc2c(F)ccc(-c3c(C(F)(F)F)c4c5c(nc(OC[C@@]67CCCN6CC(=C(F)F)C7)nc5c3F)N([C@H](CC3CCOCC3)c3cccnc3N)CCO4)c12 [Compound 781, 2-amino-4-(4-((R)-1-(2-aminopyridin-3-yl)-2-(tetrahydro-2H-pyran-4-yl)ethyl)-2-(((S)-2-(difluoromethylene)tetrahydro-1H-pyrrolizin-7a(5H)-yl)methoxy)-10-fluoro-8-(trifluoromethyl)-5,6-dihydro-4H-[1,4]oxazepino[5,6,7-de]quinazolin-9-yl)-7-fluorobenzo[b]thiophene-3-carbonitrile]	≤ 2	≤ 2	≤ 2	≤ 2
CON=C1CN2CCC[C@@]2(COc2nc3c4c(c(C(F)(F)F)c(-c5ccc(F)c6sc(N)c(C#N)c56)c(F)c4n2)OCCN3[C@H](C)c2cccnc2N)C1 (mixture of isomers) [Compound 622, 2-amino-4 ((S)-4-((R)-1-(2-aminopyridin-3-yl)ethyl)-10-fluoro-2-(((S)-2-(methoxyimino)tetrahydro-1H-pyrrolizin-7a (5H)-yl)methoxy)-8-(trifluoromethyl)-5,6-dihydro-4H-[1,4]oxazepino[5,6,7-de]quinazolin-9-yl)-7-fluorobenzo[b]thiophene-3-carbonitrile]	≤ 2	≤ 2	≤ 2	≤ 2
C#Cc1c(F)ccc2cc(O)cc(-c3nc4c5c(nc(OC[C@@]67CCCN6C[C@H](F)C7)nc5c3F)N([C@H](C)c3cccnc3N)CCO4)c12 (single isomer, unassigned) [Compound 862]	≤ 2	≤ 2	≤ 2	≤ 2
N#Cc1c(N)sc2c(F)ccc(-c3c(C(F)(F)F)c4c5c(nc(OC[C@@]67CCCN6C[C@H](F)C7)nc5c3F)N([C@H](CCC3COCCO3)c3cccnc3N)CCO4)c12 (mixture of isomers) [Compound 648, 2-amino-4-(4-((1R)-1-(2-aminopyridin-3-yl)-3-(1,4-dioxan-2-yl)propyl)-10-fluoro-2-(((2R,7aS)-2-fluorotetrahydro-1H-pyrrolizin-7a(5H)-yl)methoxy)-8-(trifluoromethyl)-5,6-dihydro-4H-[1,4]oxazepino[5,6,7-de]quinazolin-9-yl)-7-fluorobenzo[b]thiophene-3-carbonitrile]	≤ 2	≤ 2	≤ 2	≤ 2
N#Cc1c(N)sc2c(F)ccc(-c3c(C(F)(F)F)c4c5c(nc(OC[C@@]67CCCN6C[C@H](F)C7)nc5c3F)N([C@H](CCC(F)(F)F)c3cccnc3N)CCO4)c12 (atropisomer, axis not shown; (aS)) [Compound 614, 2-amino-4-((S)-4-((R)-1-(2-aminopyridin-3-yl)-4,4,4-trifluorobutyl)-10-fluoro-2-(((2R,7aS)-2-fluorotetrahydro-1H-pyrrolizin-7a (5H)-yl)methoxy)-8-(trifluoromethyl)-5,6-dihydro-4H-[1,4]oxazepino[5,6,7-de]quinazolin-9-yl)-7-fluorobenzo[b]thiophene-3-carbonitrile]	≤ 2	≤ 2	≤ 2	≤ 2
C=C(F)[C@H](c1cccnc1N)N1CCOc2c(Cl)c(-c3ccc(F)c4sc(N)c(C#N)c34)c(F)c3nc(OC[C@@]45CCCN4C[C@H](F)C5)nc1c23 [Compound 694, 2-amino-4-(4-((S)-1-(2-aminopyridin-3-yl)-2-fluoroallyl)-8-chloro-10-fluoro-2-(((2R,7aS)-2-fluorotetrahydro-1H-pyrrolizin-7a(5H)-yl)methoxy)-5,6-dihydro-4H-[1,4]oxazepino[5,6,7-de]quinazolin-9-yl)-7-fluorobenzo[b]thiophene-3-carbonitrile]	≤ 2	≤ 2	≤ 2	≤ 2
C[C@H](c1cc(Cl)cnc1N)N1CCOc2c(C(F)(F)F)c(-c3ccc(F)c4sc(N)c(C#N)c34)c(F)c3nc(OC[C@@]45CCCN4CC(=C(F)F)C5)nc1c23 [Compound 793, 2-amino-4-(4-((R)-1-(2-amino-5-chloropyridin-3-yl)ethyl)-2-(((S)-2-(difluoromethylene)tetrahydro-1H-pyrrolizin-7a(5H)-yl)methoxy)-10-fluoro-8-(trifluoromethyl)-5,6-dihydro-4H-[1,4]oxazepino[5,6,7-de]quinazolin-9-yl)-7-fluorobenzo[b]thiophene-3-carbonitrile]	≤ 2	≤ 2	≤ 2	≤ 2
